Assay results published in ChEMBL document CHEMBL1201862, “PubChem BioAssay data set” (2004).
Calls of active or inactive are those of the source.

Key:
Wee1-like protein kinase = Wee1-like protein kinase (Homo sapiens, UniProt P30291); experiment: HeLa cell cycle G2/M accumulation – FACS, mechanism study for Wee1 degradation inhibitor project, late-stage follow-up, panel member Wee1 Degradation (AID 2088)
[1] = biological target: G2/mitotic-specific cyclin-B1 (Homo sapiens, UniProt P14635); experiment: HeLa cell cycle G2/M accumulation – FACS, mechanism study for Wee1 degradation inhibitor project, late-stage follow-up, panel member Cyclin B Degradation (AID 2088)
SUMO E1/E2 = SUMO E1/E2 (Homo sapiens, UniProt P63279+Q9UBE0+Q9UBT2); experiment: SAR analysis of SUMOylation using HTRF in an in-Vitro dose response assay. [Related pubchem assays (depositor defined):AID2006, AID2011, AID2018, AID2069, AID2658]; type: functional
[2] = biological target: T1, Voltage-gated N-type calcium channel alpha-1B subunit/Amyloid beta A4 precursor protein-binding family A member 1 (Homo sapiens, UniProt Q00975+Q02410); experiment: disruptors of Mint-PDZ/N-type channel peptide interaction – biochemical, HTRF, set 2, SAR follow-up (AID 434980); type: functional
[3] = biological target: T1, Voltage-gated N-type calcium channel alpha-1B subunit/Amyloid beta A4 precursor protein-binding family A member 1; experiment: disruptors of Mint-PDZ/N-type channel peptide interaction – biochemical, HTRF, SAR follow-up (AID 2489); type: functional
[4] = biological target: DNA dC->dU-editing enzyme APOBEC-3A (Homo sapiens, UniProt P31941); experiment: A3A deaminase inhibition for selectivity – biochemical, dose response (AID 504722); type: functional
[5] = biological target: DNA dC->dU-editing enzyme APOBEC-3G (Homo sapiens, UniProt Q9HC16); experiment: Dose Response confirmation of small molecule APOBEC3G DNA Deaminase Inhibitors via a fluorescence-based single-stranded DNA deaminase assay. [Related pubchem assays (depositor defined):AID493012, AID493028]; type: functional
[6] = biological target: T2, Short transient receptor potential channel 4 (Mus musculus, UniProt Q9QUQ5); experiment: block of DAMGO-driven TRPC4 calcium entry – cell-based, HEK293 TRPC4/mu-opioid, Fluo-4 calcium, dose response (AID 434942); type: functional;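 further: potency of inhibitors blocking the TRPC4 calcium response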
T2 sequence (Q9QUQ5 whole entry): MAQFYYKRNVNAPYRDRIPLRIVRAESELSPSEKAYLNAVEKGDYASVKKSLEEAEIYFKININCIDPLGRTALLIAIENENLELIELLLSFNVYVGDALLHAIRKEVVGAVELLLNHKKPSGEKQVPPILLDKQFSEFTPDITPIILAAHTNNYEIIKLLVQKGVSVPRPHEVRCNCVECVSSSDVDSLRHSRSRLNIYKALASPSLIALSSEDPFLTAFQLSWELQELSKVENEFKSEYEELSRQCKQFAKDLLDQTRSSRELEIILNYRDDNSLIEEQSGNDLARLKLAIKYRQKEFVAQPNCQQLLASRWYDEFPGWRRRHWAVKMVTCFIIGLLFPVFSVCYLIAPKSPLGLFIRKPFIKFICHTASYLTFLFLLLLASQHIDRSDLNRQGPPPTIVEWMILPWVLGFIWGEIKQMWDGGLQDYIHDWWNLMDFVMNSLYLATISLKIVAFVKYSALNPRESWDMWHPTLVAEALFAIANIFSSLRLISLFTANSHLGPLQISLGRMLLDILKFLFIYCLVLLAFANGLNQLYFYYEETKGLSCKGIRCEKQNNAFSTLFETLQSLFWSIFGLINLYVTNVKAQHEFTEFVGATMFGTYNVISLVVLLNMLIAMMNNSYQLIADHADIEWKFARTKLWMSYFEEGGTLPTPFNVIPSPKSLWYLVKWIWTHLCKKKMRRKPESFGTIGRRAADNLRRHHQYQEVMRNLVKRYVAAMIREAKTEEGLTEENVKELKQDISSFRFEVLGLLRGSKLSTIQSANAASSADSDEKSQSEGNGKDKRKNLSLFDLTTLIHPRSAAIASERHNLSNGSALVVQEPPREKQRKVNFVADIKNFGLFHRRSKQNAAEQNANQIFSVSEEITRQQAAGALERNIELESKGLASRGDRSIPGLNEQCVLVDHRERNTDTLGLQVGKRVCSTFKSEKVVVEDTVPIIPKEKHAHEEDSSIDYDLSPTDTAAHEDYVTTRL

X-box-binding protein 1 = X-box-binding protein 1 (Homo sapiens, UniProt P17861); type: functional, Cricetulus griseus;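 further: confirmatory dose-response counter-screen serving a CHOP assay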
[7] = biological target: T3, Corticotropin-releasing factor receptor 2/Corticotropin-releasing factor-binding protein (Homo sapiens, UniProt P24387+Q13324); experiment: activators of CRF receptor 2 with binding protein – uHTS hits, confirmation (AID 602473); type: functional; details: read-out: EC50_Mean
T3 sequence (Q13324 whole entry): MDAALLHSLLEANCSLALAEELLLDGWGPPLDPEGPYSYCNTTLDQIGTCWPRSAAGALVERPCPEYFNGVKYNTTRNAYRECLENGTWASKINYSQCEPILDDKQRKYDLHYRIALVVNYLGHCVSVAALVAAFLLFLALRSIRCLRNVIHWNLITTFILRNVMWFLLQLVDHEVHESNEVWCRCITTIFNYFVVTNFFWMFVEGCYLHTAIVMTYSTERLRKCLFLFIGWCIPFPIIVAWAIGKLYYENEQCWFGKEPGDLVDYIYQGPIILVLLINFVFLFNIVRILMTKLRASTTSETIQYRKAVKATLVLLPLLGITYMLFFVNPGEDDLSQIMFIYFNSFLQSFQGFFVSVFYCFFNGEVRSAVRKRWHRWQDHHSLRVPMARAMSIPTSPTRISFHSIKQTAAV
T3 sequence (P24387 whole entry): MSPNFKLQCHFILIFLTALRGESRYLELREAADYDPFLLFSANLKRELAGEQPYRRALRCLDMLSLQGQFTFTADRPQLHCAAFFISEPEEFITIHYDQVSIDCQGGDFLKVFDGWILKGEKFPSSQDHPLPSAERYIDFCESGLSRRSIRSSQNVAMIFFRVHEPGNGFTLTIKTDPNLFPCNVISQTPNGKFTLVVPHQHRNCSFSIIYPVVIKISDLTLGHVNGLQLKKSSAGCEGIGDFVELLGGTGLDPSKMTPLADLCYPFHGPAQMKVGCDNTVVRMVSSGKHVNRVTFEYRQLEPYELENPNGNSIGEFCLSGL

[8] = A Cell Based Secondary Assay To Explore Cytotoxicity of Compounds that Sensitize Mycobacterium Tuberculosis to Beta-Lactam Antibiotics.; type: functional
[9] = HPDE-C7 pancreatic duct cell viability loss – fluorescence, HTS (AID 430); type: functional, cell-based; details: Homo sapiens
[10] = viability loss of HPDE-C7K cells – cell-based, fluorescence, HTS, primary screen (AID 431); type: functional; details: Homo sapiens
[11] = biological target: T4, Ubiquitin-conjugating enzyme E2 N (Homo sapiens, UniProt P61088); type: functional;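 further: Dose-response confirmation in a TR-FRET assay detecting UBC13-driven polyubiquitin chain formation, inhibition measured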
T4 sequence (P61088 whole entry): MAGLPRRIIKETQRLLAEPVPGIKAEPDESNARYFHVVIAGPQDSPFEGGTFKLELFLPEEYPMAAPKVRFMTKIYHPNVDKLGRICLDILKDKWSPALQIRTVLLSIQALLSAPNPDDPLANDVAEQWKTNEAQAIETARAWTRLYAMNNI

Hexokinase HKDC1 = biological target: T5, Hexokinase HKDC1 (Homo sapiens, UniProt Q2TB90); experiment: activation of HKDC1 glucose phosphorylation – biochemical, W721R variant, dose response (AID 504730); type: functional
T5 sequence (Q2TB90 whole entry): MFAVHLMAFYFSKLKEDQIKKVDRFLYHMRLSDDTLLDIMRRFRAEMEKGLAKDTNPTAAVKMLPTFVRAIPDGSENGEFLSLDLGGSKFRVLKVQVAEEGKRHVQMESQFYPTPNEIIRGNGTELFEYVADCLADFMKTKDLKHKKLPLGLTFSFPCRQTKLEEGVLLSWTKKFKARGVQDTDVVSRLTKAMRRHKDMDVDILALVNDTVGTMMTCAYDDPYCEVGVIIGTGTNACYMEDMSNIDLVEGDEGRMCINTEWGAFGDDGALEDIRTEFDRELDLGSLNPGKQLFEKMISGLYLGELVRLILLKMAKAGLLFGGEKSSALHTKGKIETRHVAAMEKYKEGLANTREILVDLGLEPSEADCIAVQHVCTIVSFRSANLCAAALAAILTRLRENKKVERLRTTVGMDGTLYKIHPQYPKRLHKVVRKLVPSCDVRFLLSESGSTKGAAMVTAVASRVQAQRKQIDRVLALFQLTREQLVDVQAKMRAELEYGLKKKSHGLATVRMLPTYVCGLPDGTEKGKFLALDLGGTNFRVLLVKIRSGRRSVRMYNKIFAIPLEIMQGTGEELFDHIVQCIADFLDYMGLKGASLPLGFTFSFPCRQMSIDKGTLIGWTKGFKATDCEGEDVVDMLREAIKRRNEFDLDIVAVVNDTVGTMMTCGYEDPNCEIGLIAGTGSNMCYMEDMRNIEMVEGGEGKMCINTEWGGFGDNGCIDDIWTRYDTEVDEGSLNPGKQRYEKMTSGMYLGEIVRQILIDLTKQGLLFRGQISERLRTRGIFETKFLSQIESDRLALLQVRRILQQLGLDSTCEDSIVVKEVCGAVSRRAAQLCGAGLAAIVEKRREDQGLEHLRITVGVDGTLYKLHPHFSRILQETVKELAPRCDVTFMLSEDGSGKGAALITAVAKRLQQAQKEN

Escherichia coli = experiment: microbe, parasite or virus in culture
[12] = biological target: Glucose-6-phosphate 1-dehydrogenase (Homo sapiens, UniProt P11413); experiment: inhibition of Homo sapiens G6PD, dose series – biochemical, fluorescence, selectivity assay for P. falciparum G6PD inhibitor project, dose response (AID 504792); type: functional
[13] = biological target: C-C chemokine receptor type 6 (Homo sapiens, UniProt P51684); experiment: antagonism of CCR6 beta-arrestin recruitment – cell-based, luminescent beta-arrestin readout, dose response (AID 504728); type: functional
Beta-galactosidase = Beta-galactosidase (Escherichia coli, UniProt Q8VNN2); experiment: detection-enzyme interference by beta-gal modulators – biochemical, E. coli enzyme, set 3, artefact control for CCR6 antagonist project, dose response (AID 504712); type: functional
Nonstructural protein 1 = Nonstructural protein 1 (Influenza A virus, UniProt Q194T2); type: functional, Influenza A virus (A/California/07/2009(H1N1))
Vero = experiment: viability of Vero cells under compound – cytotoxicity control for flavivirus capping enzyme inhibitors (AID 588742); type: functional; details: Chlorocebus sabaeus
Genome polyprotein = Genome polyprotein (dengue virus type 2, UniProt P29990); experiment: flavivirus cap methylation enzyme inhibition – biochemical, confirmation dose response, primary screen (AID 588689); type: functional
[14] = reduction of Shn3 3'UTR-driven luciferase in osteoblasts – cell-based, Clone20 osteoblasts, firefly luciferase, cherry-picked, dose response (AID 624132); type: functional;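 further: firefly luciferase luminescence from reporter carrying the Shn3 3'UTR in osteoblasts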
[15] = loss of viability in HepG2 cells – cell-based, CellTiter-Glo, cherry-picked, cytotoxicity control for Shn3 inhibitor project, dose response (AID 624134); type: functional
[16] = non-specific 3'UTR reporter inhibition in Clone20-Shn3RL – cell-based, Renilla luciferase, cherry-picked, counter-screen for Shn3 inhibitor project, dose response (AID 624133); type: functional
[17] = HGIII-sPLA2 enzyme inhibition potency – biochemical, QFRET, IC50, dose response (AID 743457);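 further: green fluorescence rise as the enzyme cleaves BODIPY PC-A2 in liposomes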
[18] = viability loss in THP-1 monocytes – THP-1 cells, cytotoxicity control for Vif-APOBEC3G degradation inhibitor project, dose response (AID 1117359); type: functional; details: THP-1
[19] = biological target: Glutathione-S-transferase (Schistosoma japonicum, UniProt Q26513); experiment: GST-antibody interaction or FRET quenching – biochemical, TR-FRET, artefact control for Vif-APOBEC3G degradation inhibitor project, dose response (AID 1117362); type: functional
[20] = microbe, parasite or virus in culture; type: functional; details: Mycobacterium tuberculosis

T1 sequence (Q00975 whole entry): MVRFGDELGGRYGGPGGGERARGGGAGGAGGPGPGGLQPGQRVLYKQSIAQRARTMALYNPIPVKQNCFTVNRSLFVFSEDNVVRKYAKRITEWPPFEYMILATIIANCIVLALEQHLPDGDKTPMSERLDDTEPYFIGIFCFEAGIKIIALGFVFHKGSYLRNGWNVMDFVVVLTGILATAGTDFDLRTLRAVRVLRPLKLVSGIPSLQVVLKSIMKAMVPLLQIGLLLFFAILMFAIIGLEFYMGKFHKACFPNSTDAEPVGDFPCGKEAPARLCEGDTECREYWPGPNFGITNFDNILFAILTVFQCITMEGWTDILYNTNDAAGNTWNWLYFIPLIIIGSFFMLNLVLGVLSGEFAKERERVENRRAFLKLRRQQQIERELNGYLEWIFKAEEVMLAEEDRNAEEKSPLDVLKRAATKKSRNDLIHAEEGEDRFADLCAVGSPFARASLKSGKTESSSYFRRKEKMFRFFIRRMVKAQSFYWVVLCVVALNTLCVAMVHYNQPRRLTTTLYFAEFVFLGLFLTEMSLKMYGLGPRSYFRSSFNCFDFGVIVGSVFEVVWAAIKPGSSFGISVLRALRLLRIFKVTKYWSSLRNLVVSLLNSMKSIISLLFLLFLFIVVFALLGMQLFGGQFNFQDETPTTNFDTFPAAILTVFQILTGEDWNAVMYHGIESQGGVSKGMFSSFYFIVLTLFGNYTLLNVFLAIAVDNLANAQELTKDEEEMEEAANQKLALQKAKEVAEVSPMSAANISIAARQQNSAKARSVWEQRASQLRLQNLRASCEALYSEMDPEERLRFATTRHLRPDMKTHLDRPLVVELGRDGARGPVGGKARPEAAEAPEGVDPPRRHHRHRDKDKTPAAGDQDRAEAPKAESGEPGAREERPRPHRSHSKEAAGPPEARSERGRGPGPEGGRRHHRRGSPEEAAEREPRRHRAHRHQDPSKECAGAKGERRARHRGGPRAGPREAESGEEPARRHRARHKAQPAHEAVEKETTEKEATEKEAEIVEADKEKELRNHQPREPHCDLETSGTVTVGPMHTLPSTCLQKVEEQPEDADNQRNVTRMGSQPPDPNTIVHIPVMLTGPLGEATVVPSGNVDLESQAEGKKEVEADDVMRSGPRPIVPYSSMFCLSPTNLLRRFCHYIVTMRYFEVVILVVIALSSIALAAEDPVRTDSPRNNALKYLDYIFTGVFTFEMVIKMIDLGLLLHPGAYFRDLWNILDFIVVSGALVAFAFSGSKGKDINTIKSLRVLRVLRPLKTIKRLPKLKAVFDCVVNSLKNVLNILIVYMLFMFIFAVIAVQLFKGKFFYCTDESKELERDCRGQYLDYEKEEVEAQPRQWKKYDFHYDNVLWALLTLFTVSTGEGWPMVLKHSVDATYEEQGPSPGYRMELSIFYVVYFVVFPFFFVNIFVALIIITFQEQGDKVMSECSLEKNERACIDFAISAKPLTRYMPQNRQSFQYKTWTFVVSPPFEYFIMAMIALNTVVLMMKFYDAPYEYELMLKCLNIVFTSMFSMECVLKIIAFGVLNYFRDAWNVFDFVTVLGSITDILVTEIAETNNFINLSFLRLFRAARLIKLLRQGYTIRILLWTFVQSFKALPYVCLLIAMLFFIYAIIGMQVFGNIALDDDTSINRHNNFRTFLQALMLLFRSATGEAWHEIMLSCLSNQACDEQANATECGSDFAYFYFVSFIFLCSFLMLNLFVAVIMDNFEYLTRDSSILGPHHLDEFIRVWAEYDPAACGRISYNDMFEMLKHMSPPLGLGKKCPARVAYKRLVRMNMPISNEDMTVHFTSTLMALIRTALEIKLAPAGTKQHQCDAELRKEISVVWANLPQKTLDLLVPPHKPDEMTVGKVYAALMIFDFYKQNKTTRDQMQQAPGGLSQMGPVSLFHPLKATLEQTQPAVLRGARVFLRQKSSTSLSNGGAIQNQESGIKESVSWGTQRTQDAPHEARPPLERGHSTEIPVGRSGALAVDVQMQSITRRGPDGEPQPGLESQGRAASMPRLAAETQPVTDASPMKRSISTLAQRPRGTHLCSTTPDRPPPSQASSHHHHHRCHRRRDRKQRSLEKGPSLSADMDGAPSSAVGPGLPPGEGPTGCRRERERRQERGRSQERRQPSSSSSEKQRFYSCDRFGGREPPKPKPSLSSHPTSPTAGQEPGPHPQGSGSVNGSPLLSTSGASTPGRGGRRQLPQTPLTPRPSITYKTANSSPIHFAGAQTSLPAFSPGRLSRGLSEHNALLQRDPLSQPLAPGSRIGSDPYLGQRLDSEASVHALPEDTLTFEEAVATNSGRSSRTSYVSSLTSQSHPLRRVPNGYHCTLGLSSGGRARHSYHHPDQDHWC
T1 sequence (Q02410 whole entry): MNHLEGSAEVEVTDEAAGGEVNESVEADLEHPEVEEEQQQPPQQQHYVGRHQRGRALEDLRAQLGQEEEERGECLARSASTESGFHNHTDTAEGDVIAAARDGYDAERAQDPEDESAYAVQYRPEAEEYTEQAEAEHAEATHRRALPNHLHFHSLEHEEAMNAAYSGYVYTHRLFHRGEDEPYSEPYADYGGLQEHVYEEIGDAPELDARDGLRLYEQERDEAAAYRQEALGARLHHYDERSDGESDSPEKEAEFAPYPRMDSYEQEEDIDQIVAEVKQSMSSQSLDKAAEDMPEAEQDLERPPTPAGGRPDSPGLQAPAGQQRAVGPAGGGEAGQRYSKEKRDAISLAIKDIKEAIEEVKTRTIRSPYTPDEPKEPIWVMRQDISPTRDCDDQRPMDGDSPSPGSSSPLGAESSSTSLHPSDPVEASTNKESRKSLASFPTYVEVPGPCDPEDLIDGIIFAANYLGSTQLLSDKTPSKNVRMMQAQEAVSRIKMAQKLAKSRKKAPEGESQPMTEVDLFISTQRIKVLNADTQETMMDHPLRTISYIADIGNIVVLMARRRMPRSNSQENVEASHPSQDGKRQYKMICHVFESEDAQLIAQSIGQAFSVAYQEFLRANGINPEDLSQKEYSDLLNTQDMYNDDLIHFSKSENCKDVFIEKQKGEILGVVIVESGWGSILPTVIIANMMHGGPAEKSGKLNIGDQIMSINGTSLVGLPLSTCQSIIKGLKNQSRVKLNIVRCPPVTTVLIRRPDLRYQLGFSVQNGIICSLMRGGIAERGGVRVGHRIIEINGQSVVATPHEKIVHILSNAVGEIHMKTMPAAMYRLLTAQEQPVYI
Chain of Wee1-like protein kinase (P30291 whole entry): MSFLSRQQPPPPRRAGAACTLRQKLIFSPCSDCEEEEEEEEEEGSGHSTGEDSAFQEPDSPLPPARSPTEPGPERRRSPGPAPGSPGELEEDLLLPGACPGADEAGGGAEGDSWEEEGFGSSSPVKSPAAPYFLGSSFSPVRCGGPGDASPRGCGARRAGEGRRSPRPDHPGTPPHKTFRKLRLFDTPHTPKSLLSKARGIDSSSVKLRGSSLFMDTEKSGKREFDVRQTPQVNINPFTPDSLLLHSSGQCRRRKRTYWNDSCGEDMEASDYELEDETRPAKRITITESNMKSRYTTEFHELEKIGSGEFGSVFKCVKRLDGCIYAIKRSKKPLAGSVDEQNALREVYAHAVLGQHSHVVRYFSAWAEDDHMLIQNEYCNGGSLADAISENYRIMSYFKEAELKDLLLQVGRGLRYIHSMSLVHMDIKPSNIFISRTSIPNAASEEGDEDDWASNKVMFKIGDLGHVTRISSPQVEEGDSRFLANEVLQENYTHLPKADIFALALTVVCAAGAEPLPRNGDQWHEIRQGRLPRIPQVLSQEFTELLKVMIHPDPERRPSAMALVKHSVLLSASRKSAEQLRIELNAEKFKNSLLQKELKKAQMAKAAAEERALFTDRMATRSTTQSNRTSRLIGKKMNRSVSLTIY
Chain of G2/mitotic-specific cyclin-B1 (P14635 whole entry): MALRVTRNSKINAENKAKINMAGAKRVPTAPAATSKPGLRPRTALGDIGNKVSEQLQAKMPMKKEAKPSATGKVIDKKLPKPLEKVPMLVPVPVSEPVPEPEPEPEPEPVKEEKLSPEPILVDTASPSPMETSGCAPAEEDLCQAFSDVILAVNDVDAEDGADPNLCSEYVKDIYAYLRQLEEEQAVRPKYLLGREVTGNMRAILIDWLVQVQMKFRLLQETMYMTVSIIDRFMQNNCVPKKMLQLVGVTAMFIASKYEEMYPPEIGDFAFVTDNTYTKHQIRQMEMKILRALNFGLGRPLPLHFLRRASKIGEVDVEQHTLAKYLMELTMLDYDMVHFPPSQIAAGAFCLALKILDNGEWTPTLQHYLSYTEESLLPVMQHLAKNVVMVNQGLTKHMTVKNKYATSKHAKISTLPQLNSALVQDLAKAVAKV
Chain of X-box-binding protein 1 (P17861 whole entry): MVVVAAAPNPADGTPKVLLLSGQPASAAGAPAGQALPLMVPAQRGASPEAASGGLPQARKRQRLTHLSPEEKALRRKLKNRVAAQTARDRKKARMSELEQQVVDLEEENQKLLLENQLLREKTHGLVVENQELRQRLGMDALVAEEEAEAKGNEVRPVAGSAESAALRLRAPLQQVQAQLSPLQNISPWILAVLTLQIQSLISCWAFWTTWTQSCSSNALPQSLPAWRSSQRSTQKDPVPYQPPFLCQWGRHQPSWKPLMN
Chain of C-C chemokine receptor type 6 (P51684 whole entry): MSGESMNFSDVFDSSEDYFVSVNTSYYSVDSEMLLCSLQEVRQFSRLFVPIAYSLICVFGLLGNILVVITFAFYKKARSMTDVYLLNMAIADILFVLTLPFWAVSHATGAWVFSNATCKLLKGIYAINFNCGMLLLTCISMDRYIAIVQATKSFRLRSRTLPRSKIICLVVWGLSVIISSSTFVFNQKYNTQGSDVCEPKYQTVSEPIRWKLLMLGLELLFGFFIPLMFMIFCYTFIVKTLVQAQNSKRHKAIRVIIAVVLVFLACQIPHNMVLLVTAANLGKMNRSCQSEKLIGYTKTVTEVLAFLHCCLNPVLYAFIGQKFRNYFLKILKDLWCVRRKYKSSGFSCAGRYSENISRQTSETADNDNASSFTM

## CCc1ccccc1NC(=O)CCCOc1cc(=O)n(C)c2ccccc12
Wee1-like protein kinase
  EC50: > 49.7 µM (inactive)
[1]
  EC50: > 49.7 µM (inactive)

## Cc1cccc(NC(=O)COc2cc(=O)n(C)c3ccccc23)n1
Wee1-like protein kinase
  EC50: > 49.7 µM (inactive)
[1]
  EC50: > 49.7 µM (inactive)

## COc1ccc(CNC(=O)CCOC(=O)c2cc(-c3ccco3)nc3ccccc23)cc1
SUMO E1/E2
  IC50: 29.6 µM (active)
[2]
  IC50: 14.4 µM (active)
[3]
  IC50: 20.8 µM (active)

## Sc1nnc(-c2ccccn2)n1/N=C/c1ccc(Cl)cc1
[4]
  IC50: > 100 µM (inactive)
[5]
  IC50: 3.33 µM (active)

## Cc1ccc(-c2[nH]c3ccccc3c2SCCN)cc1
[6]
  EC50: 4.73 µM (active)

## COc1cc(-c2nc3c(c(C)nn3-c3ccccc3)c3cc(OC)c(OC)cc23)ccc1O
X-box-binding protein 1
  Absolute IC50 (XBP1): 10 µM

## O=C(c1ccc2c(c1)OCO2)C1CCCN(Cc2cc(F)ccc2-n2cccn2)C1 (stereo not drawn)
[6]
  EC50: 5.96 µM (active)
[7]
  EC50: > 53 µM (inactive)

## CCN(CC)CCCNC(=O)c1c(O)c2ccccc2n(Cc2ccccc2)c1=O
[8]
  CC50: 32 µM (active)
[9]
  EC50: > 20 µM (not active)
[10]
  EC50: > 20 µM (not active)
[11]
  IC50: > 20 µM (inactive)
Hexokinase HKDC1
  EC50: > 80 µM (inactive)
Escherichia coli
  AC50: 23.5 µM (active)

## CN(C)c1ccc(/C=c2\c3cc([N+](=O)[O-])ccc3n3c2cc(-c2ccccc2)[n+]3C)cc1
[12]
  IC50: 28.3 µM (inactive)
[13]
  IC50: 31.9 µM (inactive)
Beta-galactosidase
  IC50: > 66.6 µM (inactive)
Nonstructural protein 1
  IC50: 4.31 µM (active)
Vero
  CC50: 34.8 µM (active)
Genome polyprotein
  IC50: 11.8 µM (active)
[14]
  AC50: 3.3 µM (active)
[15]
  AC50: 14.6 µM (active)
[16]
  AC50: 5.6 µM (active)
[17]
  IC50: 6.13 µM (active)
[18]
  CC50: 1.48 µM (active)
[19]
  IC50: 5.79 µM (active)

## Cc1ccc(C2CN(C)C3(C(=O)Nc4ccccc43)C23COc2ccccc2C3=O)cc1 (stereo not drawn)
[20]
  CC50: > 40 µM (active)
X-box-binding protein 1
  Absolute IC50 (XBP1): 10 µM
